In patent US20260193672A1, “INDUCIBLE CELL SUICIDE SWITCHES AND THEIR USE IN CELL AND GENE THERAPIES” (The General Hospital Corporation, priority 2022, published 2026):

Tests used:
Jurkat cells [1] = experiment: Competitive growth assay of modified lenalidomide suicide switches; type: cell-based; conditions: for cell viability, normalized fluorescence: in the absence of lenalidomide, normalized to % transduced on day 0
Text: To assess whether further modification of CAD could further enhance the suicide switch, we performed structural modeling of CAD, identifying side chain interactions with R11 and W 11 in the mutant form.

Jurkat cells [2] = experiment: Loss of BFP+ cells with three degron tags fused to ICAD; type: cell-based; conditions: 48 hours of exposure to controller drug; SMASH tag, dTAG or IKZF3 degron fused to ICAD
Procedure: (§1) Unless otherwise indicated, cell death assays with Jurkat or primary human T cells were performed by 48 hour incubation with the relevant drug and flow cytometry analysis for the marker of transduction.
To determine whether the ICAD-degron CAD suicide switch design is generalizable to multiple degron systems, three different degron tags (SMASH, dTag, superdegron) were fused to ICAD to facilitate ICAD degradation.

[3] = system: primary human CAR T cells; experiment: Competitive proliferation assay of suicide switch-transduced versus untransduced cells; type: cell-based; conditions: without lenalidomide
Text: Cells were stimulated weekly with an equal number of irradiated K562 cells transduced to express CD3 and CD28 scFvs. Flow cytometry was used to enumerate the percentage of mTagBFP2+ cells on days 0, 7, and 14.

primary human T cell = experiment: Four-day growth assay; type: cell-based; conditions: compared with other CAD sequences and vector control
Procedure: To test whether variations in CAD modify the performance of CAD/ICAD suicide switch, a primary human T cell four-day growth assay was performed comparing vector control, and then three modifications of ICAD-degron 2A CAD expression, differentiated by the CAD sequences.

[4] = system: cells expressing ICAD-degron/CAD; experiment: Cell depletion by ICAD-degron/CAD lenalidomide-inducible suicide switch (summary statement); type: cell-based; conditions: lenalidomide-induced, subtherapeutic lenalidomide concentrations
Procedure: as §1

[5] = system: Jurkat cells expressing the switch; experiment: DNA damage assay (gamma-H2AX intracellular flow); type: cell-based
Text: To determine whether promoter strength modifies ICADdegron-CAD suicide switch efficiency, Jurkat cells were transduced to express the ICAD-degron 2A CAD p.R11W suicide switch was expressed, driven by an EF1alpha or PGK promoter.

primary human T cells = experiment: Cell depletion, CAD/ICAD versus iCasp9 suicide switch, head-to-head; type: cell-based; conditions: dose ranges of lenalidomide and AP1903, normalized to untreated cells
Procedure: as §1

[6] = system: suicide switch CAR T cells; experiment: Incucyte live cell imaging co-culture assay, CAR T cell proliferation; type: cell-based, human
Procedure: (§2) On day −1, tissue culture plates were coated with anti-CD71 antibody diluted in PBS. On day 0, the plates were washed with PBS and then Nalm6-luciferase-GFP cells were added to the coated plates. Four hours later, primary human CAR T cells were added at a 1:1 ratio with the Nalm6 cells. Plates were imaged every hour for at least 90 hours ([…] ZOOM, live-cell analysis system). Total green, red, and blue object areas were collected, indicative of GFP+ tumor and mCherry+/mTagBFP2+ CAR and/or suicide switch T cell area.
In summary, the suicide switch can be used to deplete CAR T cells (FIG. 6E).

[7] = system: cells transduced to express pairs of BCL-xL and variants of PUMA; experiment: Growth and survival of cells expressing BCL-xL and PUMA variants fused to 913iK0; type: cell-based; conditions: BCL-xL and PUMA variants fused to E3 recruitment domain 913iK0
Procedure: Pairs of pro/anti-apoptotic proteins were evaluated for their ability to work as an effective suicide switch. BCL-xL and BIM transgene pairs were toxic to Jurkat cells transduced to express these lentiviruses, as assessed by total cell number 48 hours after high-titer transduction, see FIG. 1A. […] In this design, the goal was for the pro-apoptotic protein PUMA to bind endogenous anti-apoptotic proteins, and for drug-dependent recruitment to the E3 to result in anti-apoptotic protein ubiquitination, degradation, and cell death.

[8] = system: ICAD-degron/CAD suicide switch-positive primary human T cells; experiment: Depletion of ICAD-degron/CAD suicide switch-positive T cells; type: cell-based; conditions: 1 uM lenalidomide treatment
Procedure: as §1
Control of CAR T cell function with a lenalidomide suicide switch was also evaluated.

NALM6 tumor cells = experiment: Incucyte live cell imaging co-culture assay, tumor cell cytolysis; type: cell-based
Procedure: as §2
Tumor cell cytolysis was evaluated by Incucyte live cell imaging co-culture assay with NALM6 tumor cells.
We also generated a tri-cistronic suicide switch CAR lentivector. The same Incucyte live cell imaging co-culture assay with NALM6 tumor cells and single lentivector ICAD-degron/CAD/CAR was performed in primary human T cells. […] With lenalidomide, anti-tumor cytolysis was prevented.

ICAD-degron-CADp.R11W/K18A: suicide switch transgene with CAD p.R11W/K18A (SEQ ID NO: 27/28)
cell viability, normalized fluorescence (Jurkat cells [1]): improved cell viability | cell depletion (Jurkat cells [1]; with 1 uM lenalidomide): efficient cell depletion | drug-independent competitive growth (Jurkat cells [1]; without lenalidomide): most improved

ICAD-degron-CADp.Y49W: suicide switch transgene with CAD p.Y49W (SEQ ID NO: 25/26)
cell viability, normalized fluorescence (Jurkat cells [1]): improved cell viability

CC[C@H](C(=O)N1CCCC[C@H]1C(=O)O[C@H](CCc1ccc(OC)c(OC)c1)c1ccccc1OCC(=O)NCCCCCCOc1cccc2c1C(=O)N(C1CCC(=O)NC1=O)C2=O)c1cc(OC)c(OC)c(OC)c1 (stereo partly drawn) [dTAG-13, 1-[(2S)-1-Oxo-2-(3,4,5-trimethoxyphenyl)butyl]-(2S)-2-piperidinecarboxylate (1R)-3-(3,4-dimethoxyphenyl)-1-[2-[2-[[6-[[2-(2,6-dioxo-3-piperidinyl)-2,3-dihydro-1,3-dioxo-1H-isoindol-4-yl]oxy]hexyl]amino]-2-oxoethoxy]phenyl]propyl ester]
drug-dependent cell depletion (loss of BFP+ cells) (Jurkat cells [2]): allowed for drug-dependent cell depletion

ICAD-degron 2A CAD p.R11W: multicistronic transgene: C-terminally degron-tagged human ICAD, 2A, human CAD p.R11W (SEQ ID NO: 19/20)
T cell proliferation in competition with untransduced cells, compared with control [3]: comparable | drug-independent cell fitness (primary human T cell): enhanced drug-independent cell fitness | cell depletion [4]: > 90% | DNA damage response by promoter strength ([5]; Jurkat cells, EF1alpha promoter compared with PGK promoter): enhanced DNA damage response | cell killing compared with iCasp9 switch (primary human T cells): more complete cell killing | cell viability, normalized fluorescence (Jurkat cells [1]): improved cell viability

Nc1cccc2c1CN(C1CCC(=O)NC1=O)C2=O (stereo not drawn) [lenalidomide]
time to depletion of the CAR T cells ([6]; after 16 hour delayed lenalidomide, without rebound): ≤ 24 h | effect on suicide switch CAR T cell expansion ([6]; immediate lenalidomide): prevented suicide switch CAR T cell expansion | cell depletion [4]: > 90% | drug-dependent cell depletion (loss of BFP+ cells) (Jurkat cells [2]): allowed for drug-dependent cell depletion | effect on growth and survival of cells [7]: did not alter the growth and survival | depletion of suicide switch-positive primary human T cells [8]: successful depletion | time in which DNA damage sensing occurred ([5]; gamma-H2AX, timecourse after 1000 nM lenalidomide addition): within one hour | effect on tumor cell depletion by suicide switch CAR T cells (NALM6 tumor cells; 16 hour delayed lenalidomide, dual-vector CAR T cells): ablated tumor cell depletion | effect on tumor cell cytolysis by suicide switch CAR T cells (NALM6 tumor cells; immediate lenalidomide, dual-vector CAR T cells): prevented tumor cell cytolysis | effect on anti-tumor cytolysis, single lentivector ICAD-degron/CAD/CAR T cells (NALM6 tumor cells; with lenalidomide): prevented

Nc1nc(O)c2ncn(COC(CO)CO)c2n1 [ganciclovir]
drug-dependent cell depletion (loss of BFP+ cells) (Jurkat cells [2]): but not the SMASH tag, allowed for drug-dependent cell depletion

ICAD-degron-CADp.R11A: suicide switch transgene with CAD p.R11A (SEQ ID NO: 23/24)
cell viability, normalized fluorescence (Jurkat cells [1]): improved cell viability

ICAD-degron-CADp.R11W/E68A: suicide switch transgene with CAD p.R11W/E68A (SEQ ID NO: 29/30)
cell viability, normalized fluorescence (Jurkat cells [1]): improved cell viability
